In patent EP2264010A1, “Hetarylamidines” (Bayer CropScience AG, priority 2009, dated 2010):

Experiments:
SETVI = assay: Herbicidal activity, test type PE; assay type: in vivo; conditions: TEST-TYP PE, read-out: herbizide Wirkung SETVI
VIOTR [1] = assay: Herbicidal activity, test type PE; assay type: in vivo; conditions: TEST-TYP PE, read-out: herbizide Wirkung VIOTR
AMARE [2] = assay: Herbicidal activity, test type PE; assay type: in vivo; conditions: Amaranthus retroflexus, TEST-TYP PE, read-out: herbizide Wirkung AMARE
[3] = logP by HPLC on reversed-phase columns (C 18), EEC Directive 79/831 Annex V.A8; assay type: physicochemical; conditions: c18 reversed-phase hplc, reversed-phase (C 18), read-out: log p
Description: Die Messung der logP Werte erfolgte gemäß EEC Directive 79/831 Annex V.A8 durch HPLC (High Performance Liquid Chromatography) an reversed-phase Säulen (C 18), mit der nachfolgenden Methode: […]

VERPE [4] = assay: Herbicidal activity, test type PE; assay type: in vivo; conditions: TEST-TYP PE, read-out: herbizide Wirkung VERPE
ALOMY = assay: Herbicidal activity, test type PE; assay type: in vivo; conditions: TEST-TYP PE, 320 G/HA
ECHCG = assay: Herbicidal activity, test type PE; assay type: in vivo; conditions: TEST-TYP PE, 320 G/HA
LOLMU = assay: Herbicidal activity, test type PE; assay type: in vivo; conditions: TEST-TYP PE, read-out: herbizide Wirkung LOLMU
MATIN = assay: Herbicidal activity, test type PE; assay type: in vivo; conditions: TEST-TYP PE, read-out: herbizide Wirkung MATIN
STEME = assay: Herbicidal activity, test type PE; assay type: in vivo; conditions: TEST-TYP PE, read-out: herbizide Wirkung STEME
AMARE [5] = assay: Herbicidal activity, test type PO; assay type: in vivo; conditions: TEST-TYP PO, 80 G/HA
VERPE [6] = assay: Herbicidal activity, test type PO; assay type: in vivo; conditions: TEST-TYP PO, 80 G/HA
VIOTR [7] = assay: Herbicidal activity, test type PO; assay type: in vivo; conditions: TEST-TYP PO, 80 G/HA

Row | SMILES | pest or weed control at 320 g/ha (SETVI) [%] | pest or weed control at 320 g/ha (AMARE [2]) [%] | chromatographic logP [3] | other results
1 | CCN(C)C=Nc1ncc(C)cc1-c1ccc(Cl)c(C(F)(F)F)c1 [compound 2] | 90 | – | – | pest or weed control at 320 g/ha (VIOTR [1]): 90%
2 | CCN(C)C=Nc1ncc(Cl)cc1-c1ccc(Cl)c(C(F)(F)F)c1 [compound 4] | 90 | 90 | – | pest or weed control at 320 g/ha (VIOTR [1]): 80%
3 | CCN(C=Nc1ncc(C)cc1-c1ccc(Cl)c(C(F)(F)F)c1)CC [compound 7] | – | – | 1.75 | –
4 | Cc1cnc(N=CN(C(C)C)C(C)C)c(-c2ccc(Cl)c(C(F)(F)F)c2)c1 [compound 8] | – | – | 2.03 | –
5 | CC(=Nc1ncc(C)cc1-c1ccc(Cl)c(C(F)(F)F)c1)N(C)C [compound 9] | – | – | 0.87 | –
6 | Cc1cnc(N=CN2CCCC2)c(-c2ccc(Cl)c(C(F)(F)F)c2)c1 [compound 10] | – | – | 1.63 | –
7 | CCN(C=Nc1ncc(Cl)cc1-c1ccc(Cl)c(C(F)(F)F)c1)CC [compound 11] | – | 80 | 3.63 | pest or weed control at 320 g/ha (VIOTR [1]): 80%
8 | CC(C)N(C=Nc1ncc(Cl)cc1-c1ccc(Cl)c(C(F)(F)F)c1)C(C)C [compound 12] | – | – | 3.71 | –
9 | CN(C)C=Nc1ncc(Cl)cc1-c1ccc(F)c(C(F)(F)F)c1 [compound 13] | – | 80 | 2 | pest or weed control at 320 g/ha (VERPE [4]): 80%
10 | CCN(C)C=Nc1ncc(Cl)cc1-c1ccc(F)c(C(F)(F)F)c1 [compound 14] | 100 | 90 | 2.21 | herbizide Wirkung ALOMY (ALOMY): 90; herbizide Wirkung ECHCG (ECHCG): 80; pest or weed control at 320 g/ha (LOLMU): 100%; pest or weed control at 320 g/ha (MATIN): 100%; pest or weed control at 320 g/ha (STEME): 85%; pest or weed control at 320 g/ha (VERPE [4]): 90%; pest or weed control at 320 g/ha (VIOTR [1]): 90%
11 | CCN(C=Nc1ncc(Cl)cc1-c1ccc(F)c(C(F)(F)F)c1)CC [compound 15] | 80 | 80 | 2.59 | pest or weed control at 320 g/ha (MATIN): 80%; pest or weed control at 320 g/ha (STEME): 80%; herbizide Wirkung AMARE (AMARE [5]): 90; herbizide Wirkung VERPE (VERPE [6]): 80; herbizide Wirkung VIOTR (VIOTR [7]): 80
12 | Fc1ccc(-c2cc(Cl)cnc2N=CN2CCCC2)cc1C(F)(F)F [compound 16] | 100 | – | 1.75 | pest or weed control at 320 g/ha (LOLMU): 80%; pest or weed control at 320 g/ha (STEME): 80%; pest or weed control at 320 g/ha (VERPE [4]): 80%
13 | CCN(C)C=Nc1ncc(Br)cc1-c1ccc(Cl)c(C(F)(F)F)c1 [compound 17] | – | – | 3.09 | –
14 | CCN(C)C=Nc1ncc(C)cc1-c1ccc(F)c(C(F)(F)F)c1 [compound 18] | 90 | 80 | 1.48 | pest or weed control at 320 g/ha (VERPE [4]): 100%; pest or weed control at 320 g/ha (VIOTR [1]): 90%
15 | Cc1cnc(N=CN(C)C)c(-c2ccc(F)c(C(F)(F)F)c2)c1 [compound 19] | – | – | 1.33 | –
16 | CC(=Nc1ncc(C)cc1-c1ccc(F)c(C(F)(F)F)c1)N(C)C [compound 20] | – | – | 1.3 | –
17 | CC(C)N(C=Nc1ncc(Cl)cc1-c1ccc(F)c(C(F)(F)F)c1)C(C)C [compound 21] | – | – | 4.19 | –
18 | CC(=Nc1ncc(Cl)cc1-c1ccc(F)c(C(F)(F)F)c1)N1CCCCC1 [compound 22] | – | – | 1.74 | –
19 | Cc1cnc(N=CN2CCCC2)c(-c2ccc(F)c(C(F)(F)F)c2)c1 [compound 25] | 80 | 80 | 1.46 | –
20 | FC(F)(F)c1ccc(-c2cc(Cl)cnc2N=CN2CCCC2)cc1Cl [compound 26] | – | – | 1.98 | –
